Laboratory results from patent publication US20250051266A1, “Novel GLV-Phenolamide: Biosynthesis and Function in Protecting Plants from Herbivore Attack” (Max-Planck-Gesellschaft zur Förderung der Wissenschaften …, priority 2021, published 2025).
“Also recorded” adds a separate entry of the source.

What was measured:
Empoasca leafhoppers = assay: In vivo Empoasca choice assay, compounds infiltrated into irMYC2 leaves; design: species or system Empoasca decipiens; conditions: synthetic CoP 7 μM, CP 100 μM, FP 10 μM in 0.1% DMSO infiltrated into irMYC2 leaves
Description: The spermi-dine-derived metabolites could be excluded as mediators of Empoasca nonhost resistance based on the lack of responses of leafhoppers to the irDH29 and irCV86 lines (FIG. 5). To further explore the involvement of CoP, CP and FP, in vivo Empoasca choice assays were conducted by individually infiltrating physiologically relevant concentrations of synthetic CoP (7 μM), CP (100 μM) and FP (10 μM) into leaves of irMYC2 plants which were devoid of elicited phenolamides (FIG. 9 and FIG. 34).
Two replicates of the 650 RILs from a 26-parent MAGIC population and their 26 parental 5 lines were planted at the WCCER field station, Prescott, Arizona, USA. To elicit a standardized herbivory response, leaves of all RILs, which were in the early-flowering stage were wounded and immediately treated with diluted Manduca sexta oral secretions (W+OS) or left untreated (control) and harvested on dry ice at 1 h and 72h. One week after metabolite sampling, all plants of the field population were screened for natural Empoasca leafhopper numbers and damage; these leafhoppers had opportunistically sampled the N. attenuata plants from neighboring native cu-cumber hostplants. The mQTL and eQTL mapping between SNPs and the relative abundance of each compound or transcript using a set of 646 RILs of the MAGIC population was done with the R package software GAPIT using General linear models (GLM). The multi-omics co-association network was built from correlations among metabolomes, transcriptomes, phytohormones and SNPs. […] Metabolome diversity and specialization and metabolic specificity was calculated using information theory by consider-ing the Shannon entropy of the idMS/MS frequency distributions. […] OS-induced volatile emissions were collected using polydimethylsiloxane (PDMS) tubing from 650 MAGIC RILs planted in the main MPI-CE glasshouse and analyzed bythermal desorption-gas chromatography-mass spectrometry (TD-GC-MS). […]

NaPPO2 = NaPPO2 (Nicotiana attenuata, UniProt A0A1J6IKE9); assay: In vitro enzyme assay, substrate specificity of NaPPO2; type: biochemical; conditions: incubated with NaPPO2 and (Z)-3-hexenal
Sequence of NaPPO2 (A0A1J6IKE9 entry or part of it): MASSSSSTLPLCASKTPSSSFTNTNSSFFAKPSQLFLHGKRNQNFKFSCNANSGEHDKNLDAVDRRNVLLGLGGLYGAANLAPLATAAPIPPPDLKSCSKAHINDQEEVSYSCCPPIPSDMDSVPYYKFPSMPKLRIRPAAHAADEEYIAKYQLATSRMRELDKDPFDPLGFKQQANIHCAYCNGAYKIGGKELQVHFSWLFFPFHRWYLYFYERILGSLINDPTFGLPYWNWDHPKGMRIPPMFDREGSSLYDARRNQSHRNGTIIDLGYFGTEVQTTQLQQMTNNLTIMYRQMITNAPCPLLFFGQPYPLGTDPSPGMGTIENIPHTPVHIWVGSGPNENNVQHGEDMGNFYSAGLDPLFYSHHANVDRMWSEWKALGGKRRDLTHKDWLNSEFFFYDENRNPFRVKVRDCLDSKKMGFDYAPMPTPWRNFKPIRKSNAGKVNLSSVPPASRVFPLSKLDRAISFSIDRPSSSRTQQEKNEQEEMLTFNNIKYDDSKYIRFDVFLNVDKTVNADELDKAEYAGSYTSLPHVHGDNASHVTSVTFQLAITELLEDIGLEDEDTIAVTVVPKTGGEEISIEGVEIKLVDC
Text: Extracted ion chromatograms (EIC) for doubly charged CP dimer (m/z 250.13) and m/z 347.19 in E. coli expressing NaPPO1 and NaPPO2 with CP and Z3H or (E)-2-hexenal. Compounds 1, 2, 3, 4 denote isomers of CP dimer; compounds 5, 6 denote isomers of m/z 347.19.
FIG. 53 Substrate specificity of NaPPO1 and NaPPO2 enzymes. Overlay of total ion chromatograms (TIC) of enzyme assays for authentic chlorogenic acid (CGA std), N-coumaroylputrescine (CoP std), (Z)-3-hexenal or (E)-2-hexenal with purified NaPPO1/NaPPO2 from E. coli. Compounds 1 and 2 denote CGA and CoP; 3 and 4 denote contamination peaks from (Z)-3-hexenal and CoP standards, respectively.
To test this hypothesis, purified NaPPO1, NaPPO2 and NaBBL2 proteins with N-terminal hexahistidine tags after expression in Escherichia coli were isolated (FIGS. 44-45). Incubation of either NaPPO1 or NaPPO2 (NaPPO1/2) with CP and (Z)-3-hexenal yielded a m/z 347.19 peak with identical MS/MS spectrum and retention time as the m/z 347.19 induced in N. attenuata leaves (FIG. 46). Additionally, by-products of doubly charged CP dimers at m/z 250.13 ([M+2H]2+, C26H36N4O62+) which are not detected in oral secretion-induced leaves of N. attenuata WT (Data 2) were also produced in vitro (FIG. 16 and FIG. 47). These doubly charged CP dimers were only produced when the quantities of the (Z)-3-hexenal substrate were lower than those of the CP substrate in vitro. […]
In vitro assays of NaPPO1, NaPPO2, and NaBBL2: NaPPO1, NaPPO2, and NaBBL2 enzyme activity assays were performed by incubating 100 μg of the purified recombinant protein in 84 mM acetate buffer (pH 4.8) containing 20 mM (E)-N-caffeoylputrescine (BOC Sciences, catalogue #: B0005-053482) and 1 M cis-3-hexenal (Sigma, catalogue #: W256102-SAMPLE-K) or trans-2-hexenal (Sigma, catalogue #: W256005-1KG-K). During incubation of the enzyme reactions at 8° C., 1 μL of the reactions buffer was directly injected and analyzed by LC-MS every h to detect products. […]

N-coumaroylputrescine [CoP]
preference of Empoasca for irMYC2 plants (Empoasca leafhoppers): did not alter the preference; also recorded: not affecting leafhopper behavior or performance
acceptance as substrate (new products) (NaPPO2): not accepted as substrates
